Data from patent US5185331A, “Triazolobenzodiazepines” (Merck & Co., Inc., priority 1991, dated 1993).
Read-outs that look alike come from different tables or passages of the source.

Assays:
CCK receptor (pancreas) = target: T1, CCK receptor (pancreas) (Rattus norvegicus, UniProt P30551); experiment: 125I-CCK receptor binding (pancreas); design: species or system rat (male Sprague-Dawley); settings: for effect on the 125I-CCK receptor binding assay: added as protease inhibitor
T1 construct: The whole pancreas was dissected free of fat tissue and was homogenized; from tissue; host or cells: rat pancreas (male Sprague-Dawley), washed membrane pellet of homogenate
T1 sequence (P30551 1-444): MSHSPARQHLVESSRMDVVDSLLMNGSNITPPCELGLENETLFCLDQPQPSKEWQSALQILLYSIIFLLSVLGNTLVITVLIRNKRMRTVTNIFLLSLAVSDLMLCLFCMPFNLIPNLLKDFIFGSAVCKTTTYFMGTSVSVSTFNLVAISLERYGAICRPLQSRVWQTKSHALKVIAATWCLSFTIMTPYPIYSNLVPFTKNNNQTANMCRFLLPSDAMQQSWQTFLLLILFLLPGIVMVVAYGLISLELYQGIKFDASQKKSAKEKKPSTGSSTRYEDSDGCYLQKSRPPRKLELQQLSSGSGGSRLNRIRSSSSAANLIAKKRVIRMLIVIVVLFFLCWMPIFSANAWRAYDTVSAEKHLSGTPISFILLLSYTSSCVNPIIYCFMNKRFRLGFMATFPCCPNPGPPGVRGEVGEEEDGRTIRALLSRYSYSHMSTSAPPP
Procedure: 1. CCK receptor binding (pancreas)
CCK-33 was radiolabeled with ^125 I-Bolton Hunter reagent (2000 Ci/mmole) as described by Sankara et al. (J. Biol. Chem. 254: 9349-9351, 1979). Receptor binding was performed according to Innis and Snyder (Proc. Natl. Acad. Sci. 77: 6917-6921, 1980) with the minor modification of adding the additional protease inhibitors, phenylmethane sulfonyl fluoride and o-phenanthroline. The latter two compounds have no effect on the ^125 I-CCK receptor binding assay.
Male Sprague-Dawley rats (200-350 g) were sacrificed by decapitation. The whole pancreas was dissected free of fat tissue and was homogenized in 20 volumes of ice-cold 50 mM, Tris HCl (pH 7.7 at 25° C.) with a Brinkmann Polytron PT 10. The homogenates were centrifuged at 48,000 g for 10 min. Pellets were resuspended in Tris Buffer, centrifuged as above and resuspended in 200 volumes of binding assay buffer (50 mM Tris HCl, pH 7.7 at 25° C., 5 mM dithiothrietol, 0.1 mM bacitracin, 1.2 mM phenylmethane sulfonyl fluoride and 0.5 mM o-phenanthroline). […] All assays were run in duplicate or triplicate. The reaction mixtures were incubated at 37° C. for 30 minutes and centrifuged in a Beckman Microfuge (4 minutes) immediately after adding 1 ml of ice-cold incubation buffer. The supernatant was aspirated and discarded, pellets were counted with a Beckman gamma 5000. For Scatchard analysis (Ann. N.Y. Acad. Sci. 51: 660, 1949), ^125 I-CCK-33 was progressively diluted with increasing concentrations of CCK-33.

CCK receptor (brain) = target: T2, CCK receptor (brain) (Cavia porcellus, UniProt H0VZC5); experiment: 125I-CCK receptor binding (brain); design: species or system guinea pig (male Hartley); settings: guinea pig cerebral cortex, 125I-CCK-33, 25° C., 2 hours
T2 construct: Cerebral cortex was dissected and used as a receptor source; from tissue; host or cells: guinea pig cerebral cortex (male Hartley), washed membrane pellet of homogenate
T2 sequence (H0VZC5 entry or part of it): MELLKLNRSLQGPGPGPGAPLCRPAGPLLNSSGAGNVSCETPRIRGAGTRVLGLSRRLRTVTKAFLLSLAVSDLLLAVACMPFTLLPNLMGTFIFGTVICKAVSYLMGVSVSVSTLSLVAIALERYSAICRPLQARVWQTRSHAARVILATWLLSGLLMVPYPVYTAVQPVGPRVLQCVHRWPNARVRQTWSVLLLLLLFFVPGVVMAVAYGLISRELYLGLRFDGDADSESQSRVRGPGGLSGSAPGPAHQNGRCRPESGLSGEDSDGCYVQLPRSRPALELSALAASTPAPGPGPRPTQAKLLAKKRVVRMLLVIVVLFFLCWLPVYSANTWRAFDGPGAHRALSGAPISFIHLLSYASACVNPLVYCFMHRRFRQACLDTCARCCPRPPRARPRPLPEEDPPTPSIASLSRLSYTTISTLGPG
Procedure: 2. CCK Receptor Binding (Brain)
CCK-33 was radiolabeled and the binding was performed according to the description for the pancreas method with modification according to Saito et al. (J. Neurochem. 37, 483-490, 1981).
Male Hartley guinea pigs (300-500 g) were sacrificed by decapitation and the brains were removed and placed in ice-cold 50 mM, Tris HCl plus 7.58 g/l Trizma-7.4 (pH 7.4 at 25° C.). Cerebral cortex was dissected and used as a receptor source. Each gram of fresh guinea pig brain tissue was homogenized in 10 ml of Tris Trizma buffer with a Brinkman polytron PT-10. The homogenates were centrifuged at 42,000 g for 15 min. […] All assays were run in duplicate or triplicate. The reaction mixtures were incubated at 25° C. for 2 hours and centrifuged in a Beckman Microfuge (4 minutes) immediately after adding 1 ml of ice-cold incubation buffer. The supernatant was aspirated and discarded, pellets were counted with a Beckman gamma 5000.

CCK-B receptors = settings: brain; cited from earlier work
CCK-A receptors = settings: pancreas, gallbladder, colon; cited from earlier work
[1] = rat, brain synaptosomal fraction; cited from earlier work

Molecule	affinity for CCK-B receptors (CCK-B receptors)	affinity for CCK-A receptors (CCK-A receptors)	further results
Cc1nnc2n1-c1ccccc1C(c1ccccc1)=NC2NC(=O)Nc1ccc(Cl)cc1 (centres unmarked) [Compound 12, N-(4-Chlorophenyl)-N'-(1-methyl-6-phenyl-4H-[1,2,4]triazolo[4,3-a][1,4]benzodiazepin-4-yl)urea]			IC50 (CCK receptor (pancreas); rat pancreas membranes, 125I-CCK-33, 37° C., 30 minutes): 82 nM; IC50 (CCK receptor (brain)): 80 nM
O=C(Nc1ccc(Cl)cc1)NC1N=C(c2ccccc2)c2ccccc2-n2cnnc21 (centres unmarked) [Compound 11, N-(4-Chlorophenyl)-N'-(6-phenyl-4H-[1,2,4]triazolo-[4,3-a][1,4]benzodiazepin-4-yl)urea]			IC50 (CCK receptor (pancreas)): 120 nM; IC50 (CCK receptor (brain)): 480 nM
CCK-4	high affinity	lower affinity	
CSCC[C@H](NC(=O)[C@H](Cc1ccc(OS(=O)(=O)O)cc1)NC(=O)[C@@H](N)CC(=O)O)C(=O)NCC(=O)N[C@@H](Cc1c[nH]c2ccccc12)C(=O)N[C@@H](CCSC)C(=O)N[C@@H](CC(=O)O)C(=O)N[C@@H](Cc1ccccc1)C(N)=O [CCK-8s, H-Asp-Tyr(SO3 H)-Met-Gly-Trp-Met-Asp-Phe-NH2]	high affinity	high affinity	half-life [1]: less than 1 hour
c1cnc2c(c1)ccc1cccnc12 [o-phenanthroline]			effect on the 125I-CCK receptor binding assay (CCK receptor (pancreas)): no effect
O=S(=O)(F)Cc1ccccc1 [phenylmethane sulfonyl fluoride]			effect on the 125I-CCK receptor binding assay (CCK receptor (pancreas)): no effect
gastrin		lower affinity	
CCK-8d: the corresponding desulphated fragment		lower affinity	
CSCC[C@H](NC(=O)[C@H](Cc1c[nH]c2ccccc12)NC(=O)CCNC(=O)OC(C)(C)C)C(=O)N[C@@H](CC(=O)O)C(=O)N[C@@H](Cc1ccccc1)C(N)=O [pentagastrin]	high affinity		
